Reference: ChEMBL document CHEMBL6087448, “Eradication of Therapy-Resistant Cancer Stem Cells by Novel Telmisartan Derivatives” (J Med Chem, 2025)
The source made the active and inactive calls. No cut-off for these calls is given here.

How the values were obtained:
[1] = test system: A549; experiment: Effect on STAT5 protein expression in human A549 cells at 10 uM incubated for 72 hrs by Western blotting based immunoassay; assay type: functional, cell-based
[2] = test system: K562-r; experiment: Effect on STAT5 phosphorylation in human K562-r cells at 4 uM measured after 6 hrs by Western blotting based immunoassay; assay type: cell-based
[3] = test system: A549; experiment: Inhibition of side population phenotype in human A549 cells expressing ABCC1 at 10 uM incubated for 90 mins by DCV staining based flow cytometric analysis; assay type: functional, cell-based
[4] = test system: MCF7; experiment: Inhibition of side population phenotype in human MCF7 cells expressing ABCG2 at 10 uM incubated for 90 mins by DCV staining based flow cytometric analysis; assay type: functional, cell-based
[5] = test system: K-562R; experiment: Inhibition of side population phenotype in human K562-r cells at 10 uM incubated for 90 mins by DCV staining based flow cytometric analysis relative to control; assay type: functional
[6] = test system: MCF7; experiment: Inhibition of STAT5 phosphorylation in human MCF7 cells at 10 uM incubated for 72 hrs by Western blotting based immunoassay; assay type: cell-based
[7] = test system: COS-7; experiment: Cytotoxicity against African green monkey COS-7 cells assessed as reduction in metabolic activity at 10 uM incubated for 72 hrs by MTT assay; assay type: toxicity, cell-based; conditions: chlorocebus aethiops, cos-7, 72 h
[8] = test system: A2780/Taxol; experiment: Inhibition of side population phenotype in human Paclitaxel-resistant A2780 cells expressing ABCB1 at 10 uM incubated for 90 mins by DCV staining based flow cytometric analysis; assay type: functional, cell-based
[9] = test system: Paclitaxel-resistant IGROV-1 cell; experiment: Inhibition of STAT5 phosphorylation in human Paclitaxel-resistant IGROV-1 cells expressing ABCB1 at 10 uM incubated for 72 hrs by Western blotting based immunoassay
[10] = test system: Paclitaxel-resistant IGROV-1 cell; experiment: Downregulation of STAT5 protein expression in human Paclitaxel-resistant IGROV-1 cells expressing ABCB1 at 10 uM incubated for 72 hrs by Western blotting based immunoassay; assay type: functional
[11] = test system: Docetaxel-resistant PC-3 cell; experiment: Enhancement of docetaxel-induced anti-metabolic activity against human Docetaxel-resistant PC-3 cell assessed as reduction in metabolic activity at 10 uM measured after 72 hrs by MTT assay; assay type: functional, cell-based
[12] = test system: Paclitaxel-resistant IGROV-1 cell; experiment: Inhibition of side population phenotype in human Paclitaxel-resistant IGROV-1 cells expressing ABCB1 at 10 uM incubated for 90 mins by DCV staining based flow cytometric analysis; assay type: functional
[13] = test system: A2780/Taxol; experiment: Effect on STAT5 protein expression in human Paclitaxel-resistant A2780 cells expressing ABCB1 at 10 uM incubated for 72 hrs by Western blotting based immunoassay; assay type: functional, cell-based
[14] = test system: K-562R; experiment: Effect on ABCB1 protein expression in human K562-r cells at 4 uM incubated for 72 hrs by Western blotting based immunoassay; assay type: functional, cell-based
[15] = test system: Docetaxel-resistant DU145 cell; experiment: Enhancement of docetaxel-induced anti-metabolic activity against human Docetaxel-resistant DU145 cell assessed as reduction in metabolic activity at 10 uM measured after 72 hrs by MTT assay; assay type: functional, cell-based
[16] = test system: Docetaxel-resistant PC-3 cell; experiment: Inhibition of side population phenotype in human Docetaxel-resistant PC-3 cell expressing ABCB1 at 10 uM incubated for 90 mins by DCV staining based flow cytometric analysis; assay type: functional
[17] = test system: K562-r; experiment: Inhibition of STAT5 phosphorylation in human K562-r cells at 4 uM measured after 72 hrs by Western blotting based immunoassay; assay type: cell-based
[18] = test system: A2780/Taxol; experiment: Sensitization of paclitaxel-induced cytotoxicity against human Paclitaxel-resistant A2780 cells assessed as reduction in metabolic activity at 10 uM measured after 72 hrs by MTT assay; assay type: functional, cell-based
[19] = test system: A549; experiment: Inhibition of STAT5 phosphorylation in human A549 cells at 10 uM incubated for 72 hrs by Western blotting based immunoassay; assay type: cell-based
[20] = test system: Paclitaxel-resistant A2780; experiment: Inhibition of STAT5 phosphorylation in human Paclitaxel-resistant A2780 cells expressing ABCB1 at 10 uM incubated for 72 hrs by Western blotting based immunoassay; assay type: cell-based
[21] = test system: MCF7; experiment: Effect on STAT5 protein expression in human MCF7 cells at 10 uM incubated for 72 hrs by Western blotting based immunoassay; assay type: functional, cell-based
[22] = test system: K562-r; experiment: Inhibition of STAT5 phosphorylation in human K562-r cells at 4 uM measured after 6 hrs in presence of imatinib by Western blotting based immunoassay; assay type: cell-based
[23] = test system: Paclitaxel-resistant IGROV-1 cell; experiment: Enhancement of paclitaxel-induced anti-metabolic activity in human Paclitaxel-resistant IGROV-1 cells assessed as reduction in metabolic activity upto 300 nM measured after 72 hrs by MTT assay; assay type: functional, cell-based
[24] = test system: Docetaxel-resistant DU145 cell; experiment: Inhibition of side population phenotype in human Docetaxel-resistant DU145 cell expressing ABCB1 at 10 uM incubated for 90 mins by DCV staining based flow cytometric analysis; assay type: functional
[25] = test system: K-562R; experiment: Cytotoxicity against human K562-r cells assessed as cell viability at 10 uM incubated for 72 hrs by MTT assay relative to control; assay type: functional; conditions: read-out: Activity
[26] = test system: K-562R; experiment: Sensitization of imatinib-induced cytotoxicity against human K562-r cells assessed as reduction in metabolic activity at 10 uM measured after 72 hrs by MTT assay; assay type: functional, cell-based
[27] = test system: K-562R; experiment: Cytotoxicity against human K562-r cells assessed as reduction in metabolic activity; assay type: functional, cell-based
[28] = test system: K562-r; experiment: Effect on STAT5 phosphorylation in human K562-r cells at 4 uM measured after 72 hrs by Western blotting based immunoassay; assay type: cell-based
[29] = test system: K562-r; experiment: Effect on STAT5 phosphorylation in human K562-r cells at 4 uM measured after 6 hrs in presence of imatinib by Western blotting based immunoassay; assay type: cell-based
[30] = test system: K-562R; experiment: Sensitization of imatinib-induced cytotoxicity against human K562-r cells assessed as reduction in metabolic activity at 0.5 to 6 uM measured after 72 hrs by MTT assay; assay type: functional, cell-based; conditions: dose 0.5-6 µM
[31] = test system: K562; experiment: Cytotoxicity against human K562 cells assessed as reduction in metabolic activity at 10 uM measured after 72 hrs by MTT assay; assay type: functional, cell-based
[32] = test system: K-562R; experiment: Inhibition of side population phenotype in human K562-r cells at 0.1 uM incubated for 90 mins by DCV staining based flow cytometric analysis; assay type: functional, cell-based
[33] = test system: K-562R; experiment: Sensitization of imatinib-induced cytotoxicity against human K562-r cells assessed as cell viability at 10 uM measured after 72 hrs by MTT assay relative to control; assay type: functional; conditions: read-out: Activity
[34] = test system: K-562R; experiment: Sensitization of imatinib-induced cytotoxicity against human K562-r cells assessed as metabolic activity at 8 uM measured after 72 hrs by MTT assay relative to control; assay type: functional

CCCc1nc2ccccc2n1Cc1ccc(-c2ccc(C(N)=O)cc2)cc1
Activity [1]: inactive
Activity [2]: inactive
inhibition [3]: inactive
inhibition [4]: inactive
inhibition [5]: Active
inhibition [6]: Active
Activity [7]: Non-toxic
inhibition [8]: Active
inhibition [9]: Active
Activity [10]: Active
Activity [11]: Active
inhibition [12]: Active
Activity [13]: inactive
Activity [14]: inactive
Activity [15]: Active
inhibition [16]: Active
inhibition [17]: Active
Activity [18]: Active
inhibition [19]: Active
inhibition [20]: Active
Activity [21]: inactive
inhibition [22]: Active
Activity [23]: Active
inhibition [24]: Active

CCCc1nc2ccccc2n1Cc1ccccc1C(N)=O
Activity [7]: Non-toxic
viability at 10 µM [25]: ~75%
Activity [26]: inactive

COc1cc2c(cc1OC)CN(CCc1ccc(NC(=O)c3cccc4c(=O)c5cccc(OC)c5[nH]c34)cc1)CC2
Activity [2]: inactive
Activity [27]: inactive
Activity [28]: inactive
Activity [29]: inactive
Activity [30]: Active
Activity [31]: inactive
inhibition [32]: Active

CCCc1nc2ccccc2n1Cc1cccc(C(=O)OC)c1
inhibition [5]: inactive
viability at 10 µM [33]: 34%
Activity [7]: Non-toxic
Activity [34]: 44%

COc1ccc(CCN(C)CCCC(C#N)(c2ccc(OC)c(OC)c2)C(C)C)cc1OC (configuration not stated)
Activity [27]: inactive
Activity [30]: Active
Activity [31]: inactive

C/C=C/C[C@@H](C)C(=O)[C@H]1C(=O)N[C@@H](C(C)C)C(=O)N(C)CC(=O)N(C)[C@@H](CC(C)C)C(=O)N[C@@H](C(C)C)C(=O)N(C)[C@@H](CC(C)C)C(=O)N[C@@H](C)C(=O)N[C@H](C)C(=O)N(C)[C@@H](CC(C)C)C(=O)N(C)[C@@H](CC(C)C)C(=O)N(C)[C@@H](C(C)C)C(=O)N1C
Activity [27]: inactive
Activity [30]: Active
Activity [31]: inactive

CCCc1nc2ccccc2n1Cc1cccc(C(=O)O)c1
Activity [7]: Non-toxic
Activity [26]: inactive

CCCc1nc2ccccc2n1Cc1cccc(C(N)=O)c1
Activity [7]: Non-toxic
Activity [26]: inactive

CCCc1nc2ccccc2n1Cc1ccc(-c2ccc(C(=O)OC)cc2)cc1
Activity [2]: inactive
inhibition [5]: Active
Activity [7]: Non-toxic
viability at 10 µM [25]: ~75%
Activity [14]: inactive
inhibition [17]: Active
inhibition [22]: Active

CCCc1nc2ccccc2n1Cc1ccc(-c2ccccc2C(=O)OC)cc1
Activity [2]: inactive
inhibition [5]: Active
Activity [7]: Non-toxic
Activity [14]: inactive
inhibition [17]: Active; Lesser Effect Observed
Activity [29]: inactive

CCCc1nc2ccccc2n1Cc1ccc(C(N)=O)cc1
Activity [7]: Non-toxic
Activity [26]: inactive

CCCc1nc2ccccc2n1Cc1ccccc1C(=O)O
Activity [7]: Non-toxic
Activity [26]: inactive

CCCc1nc2ccccc2n1Cc1ccc(-c2ccc(C(=O)O)cc2)cc1
Activity [7]: Non-toxic
Activity [26]: inactive

CCCc1nc2ccccc2n1Cc1ccc(-c2ccccc2C(N)=O)cc1
Activity [7]: Non-toxic

CCCc1nc2ccccc2n1Cc1ccc(-c2cccc(C(=O)OC)c2)cc1
viability at 10 µM [33]: 34%
Activity [7]: Non-toxic

CCCc1nc2ccccc2n1Cc1ccc(C(=O)OC)cc1
inhibition [5]: inactive
viability at 10 µM [33]: 34%
Activity [7]: Non-toxic
Activity [34]: 44%

CCCc1nc2ccccc2n1Cc1ccc(-c2cccc(C(=O)O)c2)cc1
Activity [7]: Non-toxic
Activity [26]: inactive

CCCc1nc2ccccc2n1Cc1ccccc1C(=O)OC
Activity [2]: inactive
inhibition [5]: inactive
viability at 10 µM [33]: 34%
Activity [7]: Non-toxic
Activity [34]: 44%
Activity [14]: inactive
inhibition [17]: Active; Lesser Effect Observed
Activity [29]: inactive

CCCc1nc2ccccc2n1Cc1ccc(C(=O)O)cc1
Activity [7]: Non-toxic
Activity [26]: inactive

CCCc1nc2ccccc2n1Cc1ccc(-c2ccccc2C(=O)O)cc1
Activity [7]: Non-toxic
Activity [26]: inactive

CCCc1nc2ccccc2n1Cc1ccc(-c2cccc(C(N)=O)c2)cc1
Activity [1]: inactive
Activity [2]: inactive
inhibition [3]: inactive
inhibition [4]: inactive
inhibition [5]: Active
inhibition [6]: Active
Activity [7]: Non-toxic
inhibition [8]: Active
inhibition [9]: Active
Activity [10]: Active
Activity [11]: Active
inhibition [12]: Active
Activity [13]: inactive
Activity [14]: inactive
Activity [15]: Active
inhibition [16]: Active
inhibition [17]: Active; Lesser Effect Observed
Activity [18]: Active
inhibition [19]: Active
inhibition [20]: Active
Activity [21]: inactive
inhibition [22]: Active
Activity [23]: Active
inhibition [24]: Active
